Like-named read-outs stand apart in the source and are kept apart here.
How the values were obtained:
[1] = for initial conductivity reading at 3 seconds: first reading 3 seconds; for percent of NaF dissolved in the first 3 seconds: from conductivity; for percent of salt dissolved in first 3 seconds: room temperature, FIG. 5; for 3 sec Dissolution: Table 4, 3 sec; for 200 sec Dissolution: Table 4, 200 sec; for 400 sec Dissolution: Table 4, 400 sec; for 800 sec Dissolution: Table 4, 800 sec
Procedure: Such a test is a standard test that is well understood in the scientific community. In this experiment, at room temperature, 35 mg of commercially available solid cubic sodium fluoride was added to a beaker. A conductivity probe was placed into the beaker. 25 mL of ultrapure water was added to the beaker, instantaneously submerging the conductivity probe. Conductivity data can be collected every 3 seconds on the probe.
This is tested by adding to a beaker 56 mg of the given salt to be tested. To this is added a conductivity probe. As the salt is added, the solution is stirred.
The dissolution rate of NaF crystals correlates to the conductivity of NaF in solution. That is to say, as salt dissolves in water, the conductivity of the salt solution increases. […] Conductivity is utilized to test the rate of dissolution. The conductivity of ultrapure water is approximately […] when no ions are present. The first reading on the conductivity meter can be made 3 seconds after the experiment begins.

[2] = Surface area (BET method) normalized to mass; format: physicochemical
From the text: Further characterization of the HSA NaF crystals compared to the solid cubic commercially available crystals of sodium fluoride examined the surface area (BET method) normalized to the mass of the crystals. […] Use of either of the Hall density of the surface area normalized to mass allows for a quantitative mechanism to differentiate the crystal formation.

[3] = Hall density (ASTM Standard B212-99)

Structure (SMILES): [F-].[Na+] [85% ethanol formulation, sodium fluoride]
- initial conductivity reading at 3 seconds ([1]; FIG. 7A): 2,068 μS/cm
- percent of NaF dissolved in the first 3 seconds ([1]; FIG. 7A): approximately 79%

Structure (SMILES): [F-].[Na+] [HSA NaF crystals, sodium fluoride]
- percent of salt dissolved in first 3 seconds ([1]; 35 mg in 25 mL ultrapure water, listed as HSA crystal NaF): approximately 90%
- 3 sec Dissolution ([1]; listed as High Surface Area): ~2,600
- 200 sec Dissolution ([1]; listed as High Surface Area): ~2,625
- 400 sec Dissolution ([1]; listed as High Surface Area): ~2,700
- 800 sec Dissolution ([1]; listed as High Surface Area): ~2,750
- rate of dissolution in aqueous environment compared with commercial cubic crystals ([1]; conductivity as a function of time): greater rate than commercially available cubic crystals
- time to reach virtual maximum release ([1]; dissolution in water): 3 s
- surface area to mass ratio ([2]; listed as hopper crystals): 0.22±0.04 m^2/g
- Hall density ([3]; listed as HSA NaF hopper crystals): 0.68 ± 0.04 g/mL

Structure (SMILES): [F-].[Na+] [commercial NaF, sodium fluoride]
- percent of salt dissolved in first 3 seconds ([1]; 35 mg in 25 mL ultrapure water, listed as commercially available solid cubic sodium fluoride): approximately 33%
- conductivity after all of the salt dissolved ([1]; FIG. 7A): 2,605 μS/cm
- time before all the NaF dissolved ([1]; FIG. 7A): About 500 seconds
- initial conductivity reading at 3 seconds ([1]; FIG. 7A): 1,127 μS/cm
- percent of NaF dissolved in the first 3 seconds ([1]; FIG. 7A): ~43%
- 3 sec Dissolution ([1]; listed as Ordinary): ~1,000
- 200 sec Dissolution ([1]; listed as Ordinary): ~1,175
- 400 sec Dissolution ([1]; listed as Ordinary): ~1,500
- 800 sec Dissolution ([1]; listed as Ordinary): ~2,500
- time for ordinary crystal to reach the concentration of HSA crystal's virtual maximum release ([1]; dissolution in water): more than ten minutes
- surface area to mass ratio ([2]; listed as commercial crystals): 0.12±0.02 m^2/g
- Hall density ([3]; listed as Commercial solid cubic crystals of sodium fluoride): 0.86 ± 0.03 g/mL

Structure (SMILES): [F-].[Na+] [crystals made from precipitation into 90% ethanol] [sodium fluoride]
- percent of NaF dissolved in the first 3 seconds ([1]; FIG. 7A): 60%

Structure (SMILES): [F-].[Na+] [sodium fluoride]
- peak conductivity of sodium fluoride solution ([1]; 35 mg in 25 mL ultrapure water): approximately 3,000 μS/cm
